Results taken from US11884661B2, “3-substituted propionic acids as αV integrin inhibitors” (BRISTOL-MYERS SQUIBB COMPANY, priority 2016, dated 2024).

Target: T1, human αVβ6 (Homo sapiens, UniProt P06756+P18564)
T1 construct: purchased R & D systems 3817-AV
Assay: human αVβ6 HTRF binding assay
Settings: recombinant human αVβ6 integrin, FITC-conjugated fibronectin
In short: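 Biotinylated recombinant αVβ6 (1.25 nM final) incubated with FITC-fibronectin (5 nM) 1 h at RT, then streptavidin-terbium (0.625 nM) added and incubated overnight at RT in the dark before HTRF read. Buffer: 20 mM Tris pH 7.4, 1 mM MgCl2, 1 mM MnCl2, 0.01% Tween 20, 0.01% BSA.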

T1 sequence (P06756 31-992 limits assumed): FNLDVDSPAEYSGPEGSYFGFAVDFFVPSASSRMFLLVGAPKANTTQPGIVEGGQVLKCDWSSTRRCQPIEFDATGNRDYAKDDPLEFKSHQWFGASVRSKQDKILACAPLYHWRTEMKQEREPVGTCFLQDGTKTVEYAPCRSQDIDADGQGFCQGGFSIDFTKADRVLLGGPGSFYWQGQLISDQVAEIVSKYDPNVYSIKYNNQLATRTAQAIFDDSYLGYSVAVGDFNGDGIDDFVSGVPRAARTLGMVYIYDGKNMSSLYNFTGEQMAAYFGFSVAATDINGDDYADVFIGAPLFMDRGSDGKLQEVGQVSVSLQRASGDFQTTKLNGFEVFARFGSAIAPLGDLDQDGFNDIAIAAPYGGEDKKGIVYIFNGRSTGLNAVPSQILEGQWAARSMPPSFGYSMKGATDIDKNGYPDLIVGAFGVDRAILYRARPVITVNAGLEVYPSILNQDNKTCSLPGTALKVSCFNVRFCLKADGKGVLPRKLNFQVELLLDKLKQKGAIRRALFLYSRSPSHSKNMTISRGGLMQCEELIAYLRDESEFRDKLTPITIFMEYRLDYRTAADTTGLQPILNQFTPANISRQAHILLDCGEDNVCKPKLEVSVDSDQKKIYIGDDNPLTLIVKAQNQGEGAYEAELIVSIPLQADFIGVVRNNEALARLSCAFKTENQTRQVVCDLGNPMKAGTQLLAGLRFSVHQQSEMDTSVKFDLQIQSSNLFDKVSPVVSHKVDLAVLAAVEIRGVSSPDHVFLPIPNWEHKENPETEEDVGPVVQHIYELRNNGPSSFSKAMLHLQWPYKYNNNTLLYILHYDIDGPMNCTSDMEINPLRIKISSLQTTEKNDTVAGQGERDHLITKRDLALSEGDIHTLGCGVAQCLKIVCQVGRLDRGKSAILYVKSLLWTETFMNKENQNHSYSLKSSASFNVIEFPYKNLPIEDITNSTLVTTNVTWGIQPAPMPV
T1 sequence (P18564 22-707 limits assumed): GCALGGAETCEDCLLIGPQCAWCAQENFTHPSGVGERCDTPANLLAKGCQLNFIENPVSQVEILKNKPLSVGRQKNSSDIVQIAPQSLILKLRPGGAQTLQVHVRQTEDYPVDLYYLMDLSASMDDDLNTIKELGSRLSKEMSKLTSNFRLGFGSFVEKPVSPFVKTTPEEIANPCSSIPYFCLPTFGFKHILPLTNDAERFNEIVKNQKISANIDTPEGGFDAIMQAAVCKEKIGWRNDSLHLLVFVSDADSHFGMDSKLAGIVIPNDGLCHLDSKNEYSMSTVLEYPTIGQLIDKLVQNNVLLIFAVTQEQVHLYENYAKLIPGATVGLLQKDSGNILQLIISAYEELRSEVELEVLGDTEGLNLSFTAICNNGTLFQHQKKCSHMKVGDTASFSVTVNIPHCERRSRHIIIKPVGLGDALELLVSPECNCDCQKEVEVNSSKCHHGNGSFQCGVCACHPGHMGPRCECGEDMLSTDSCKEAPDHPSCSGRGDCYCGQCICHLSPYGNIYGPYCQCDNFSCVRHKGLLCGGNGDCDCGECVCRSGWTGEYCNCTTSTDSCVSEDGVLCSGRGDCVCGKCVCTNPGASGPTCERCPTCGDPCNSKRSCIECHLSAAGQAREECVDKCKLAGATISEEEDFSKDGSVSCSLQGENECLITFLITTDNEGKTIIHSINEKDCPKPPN

Compound | IC50 [nM]
COc1ccc([C@H](CC(=O)O)c2cnn(CCCc3ccc4c(n3)NCCC4)c2)cn1 [Example 8, (A)-3-(6-Methoxypyridin-3-yl)-3-(1-(3-(5,6,7,8-tetrahydro-1,8-naphthyridin-2-yl)propyl)-1H-pyrazol-4-yl)propanoic acid] | 64
Cc1ncc(C(CC(=O)O)n2nccc2CCC[C@@H]2CCc3cccnc3N2)cn1 (mixture of isomers) [Example 91, 3-(2-methylpyrimidin-5-yl)-3-(5-(3-((R)-1,2,3,4-tetrahydro-1,8-naphthyridin-2-yl)propyl)-1H-pyrazol-1-yl)propanoic acid] | 1400
COc1ccc(C(CC(=O)O)c2nc(CCCC3CCc4cccnc4N3)cs2)cc1F (single isomer, unassigned) [Example 160, 3-(3-fluoro-4-methoxyphenyl)-3-(4-(3-(1,2,3,4-tetrahydro-1,8-naphthyridin-2-yl)propyl)thiazol-2-yl)propanoic acid] | 195
CN(C)C(=O)c1cccc(C(CC(=O)O)c2nc(CCCc3ccc4c(n3)NCCC4)cs2)c1 (single isomer, unassigned) [Example 139, 3-(3-(dimethylcarbamoyl)phenyl)-3-(4-(3-(5,6,7,8-tetrahydro-1,8-naphthyridin-2-yl)propyl)thiazol-2-yl)propanoic acid] | 34
O=C(O)CC(c1cnc(N2CCC2)nc1)n1nccc1CCCc1ccc2c(n1)NCCC2 (racemic) [Example 53, (±)-3-(2-(Azetidin-1-yl)pyrimidin-5-yl)-3-(5-(3-(5,6,7,8-tetrahydro-1,8-naphthyridin-2-yl)propyl)-1H-pyrazol-1-yl)propanoic acid] | 140
COc1ccc(C(CC(=O)O)n2nccc2CCCc2ccc3c(n2)NCCC3)nn1 (racemic) [Example 58, (±)-3-(6-Methoxypyridazin-3-yl)-3-(5-(3-(5,6,7,8-tetrahydro-1,8-naphthyridin-2-yl)propyl)-1H-pyrazol-1-yl)propanoic acid] | 2100
Cc1cncc(C(CC(=O)O)c2nc(CCCc3ccc4c(n3)NCCC4)cs2)c1 (single isomer, unassigned) [Example 150, 3-(5-methylpyridin-3-yl)-3-(4-(3-(5,6,7,8-tetrahydro-1,8-naphthyridin-2-yl)propyl)thiazol-2-yl)propanoic acid] | 87

Stronger by IC50, values ahead:

IC50 [nM] | Compound
3.5 | CN(C)c1ccc(C(CC(=O)O)c2nc(CCCCc3ccc4c(n3)NCCC4)cs2)cn1 (single isomer, unassigned) [Example 122, 3-(6-(dimethylamino)pyridin-3-yl)-3-(4-(4-(5,6,7,8-tetrahydro-1,8-naphthyridin-2-yl)butyl)thiazol-2-yl)propanoic acid]
2.9 | COc1ccc(C(CC(=O)O)c2nc(CCCc3ccc4c(n3)NCCC4)cs2)cc1OC (single isomer, unassigned) [Example 141, 3-(3,4-dimethoxyphenyl)-3-(4-(3-(5,6,7,8-tetrahydro-1,8-naphthyridin-2-yl)propyl)thiazol-2-yl)propanoic acid]
2.6 | Cc1cncc(C(CC(=O)O)c2nc(CCCc3ccc4c(n3)NCCC4)cs2)c1 (single isomer, unassigned) [Example 151, 3-(5-methylpyridin-3-yl)-3-(4-(3-(5,6,7,8-tetrahydro-1,8-naphthyridin-2-yl)propyl)thiazol-2-yl)propanoic acid]
4.9 | O=C(O)C[C@@H](c1cnc2c(c1)OCCO2)n1ccc(CCCc2ccc3c(n2)NCCC3)n1 [Example 51, (S)-3-(2,3-Dihydro-[1,4]dioxino[2,3-b]pyridin-7-yl)-3-(3-(3-(5,6,7,8-tetrahydro-1,8-naphthyridin-2-yl)propyl)-1H-pyrazol-1-yl)propanoic acid]
4.3 | O=C(O)CC(c1cnc2ccccc2c1)n1ncc(CCCc2ccc3c(n2)NCCC3)n1 (single isomer, unassigned) [Example 175, 3-(quinolin-3-yl)-3-(4-(3-(5,6,7,8-tetrahydro-1,8-naphthyridin-2-yl)propyl)-2H-1,2,3-triazol-2-yl)propanoic acid]
